{"source": "patent US20030045485A1", "about": "“P53-MEDIATED APOPTOSIS FOR THE THERAPEUTIC TREATMENT OF DISEASES” (priority 1993, published 2003)", "key": {"p53^tsneo clones": {"system": "p53^tsneo clones", "assay": "DMSO-induced differentiation of p53^tsneo clones, benzidine staining", "assay_type": "cell-based, mouse", "details": "5 days exposure to 1.6% DMSO at 37.5° C., viable cells isolated through Ficoll-paque", "experimental": "To characterize the consequences of enforced expression of p53 on differentiation, logarithmically growing transfectants were exposed to media containing 1.6% dimethyl sulfoxide (DMSO) and incubated at 37.5° C. Media was changed every other day. Cells underwent growth arrest and subsequently died over a period of 48-96 hours (FIG. 8A; DP16-1 cells, ______, p53^tsneo transfected DP16-1 cells, - - -, and DP16-1 cells co-transfected with c-myb and p53^tsneo, _._._). Viable cells were isolated by centrifugation through Ficoll-paque (Pharmacia). […] This is in contrast to untransfected control DP16-1 cells which, when grown in media containing DMSO, downregulate c-myb mRNA and differentiate while remaining viable (FIG. 8A & 8B). As expected, the p53^ts protein was located in the cytoplasm of the cells growing at 37.5° C. in the absence of DMSO (FIG. 9A, panel a; C4 p53^tsneo DP16-1 cells). […] Thus despite the fact that the cells were grown at 37.5° C., DMSO caused the p53^ts to behave as wild-type p53 tumor suppressor and induced apoptotic cell death. MEL cells can also exit the cell cycle by being stimulated to terminally differentiate. DMSO was used to induce differentiation of p53^tsneo clones at 37.5° C. After 5 days exposure to 1.6% DMSO, viable cells were isolated by centrifugation through Ficoll-paque. […] These cells were placed at 32.5° C. and viability monitored. […]"}, "[1]": {"system": "p53^tsneo transfected DP16-1 cells", "assay": "Viability of p53^tsneo transfectants in media containing 1.6% DMSO", "assay_type": "cell-based, mouse", "details": "37.5° C., logarithmically growing transfectants", "experimental": "DP16-1 MEL cells were grown in Dulbecco modified minimal essential medium (DMEM) supplemented with 10% calf serum, 2 mM glutamine, 100 U of penicillin per ml, and 100 μg of […] per ml. DNA transfections were performed by electroporation (Prochownik et al., supra). Transfection mixes consisted of 1×10^7 cells in 400 μl transfection buffer (272 mM sucrose, 7 mM phosphate (pH 7.4), 1 mM MgCl2) with either 10 μg p53^tsneo, or 10 μg pSV-2neo, linearized with Bam HI. Transfected cells were selected in media containing 1 mg/ml geneticin (G418; GIBCO). Single-cell clones were isolated by limiting cell dilution in 96-well microtiter plates. To characterize the consequences of enforced expression of p53 on differentiation, logarithmically growing transfectants were exposed to media containing 1.6% dimethyl sulfoxide (DMSO) and incubated at 37.5° C. Media was changed every other day. Cells underwent growth arrest and subsequently died over a period of 48-96 hours (FIG. 8A; DP16-1 cells, ______, p53^tsneo transfected DP16-1 cells, - - -, and DP16-1 cells co-transfected with c-myb and p53^tsneo, _._._). Viable cells were isolated by centrifugation through Ficoll-paque (Pharmacia). […] This is in contrast to untransfected control DP16-1 cells which, when grown in media containing DMSO, downregulate c-myb mRNA and differentiate while remaining viable (FIG. 8A & 8B). […]"}, "parental DP16-1 cells": {"system": "parental DP16-1 cells", "assay": "DMSO-induced differentiation of parental DP16-1 cells, benzidine staining", "assay_type": "cell-based, mouse", "details": "two days of exposure to medium containing DMSO", "description": "(§1) MEL cell lines invariability contain mutations of the p53 tumor suppressor gene and express either negligible or mutant p53 protein. During MEL differentiation there is a biphasic decline in expression of the c-myc oncogene although enforced expression of c-myc blocks this differentiation. To determine the relationship between mutant p53 and c-myc in cell differentiation, DP16-1 cells (which have deleted both p53 alleles) were transfected with an amplifiable plasmid vector containing a full-length mouse c-myc cDNA with or without plasmid vector containing a mutant p53 cDNA (p53^pro193). The exogenous c-myc cDNA is transcribed in MEL cells and results in increased expression of c-myc mRNA and protein during DMSO-induced differentiation. Extent of differentiation was monitored by benzidine staining (FIGS. 17A and 17B). When MEL cells are exposed to DMSO, differentiation normally occurs over a five day period. In contrast to the parental DP16-1 cells or DP16-1 cells transfected with pSV2LZquad, c-myc transfected DP16-1 cells or underwent accelerated differentiation. […] Furthermore, c-myc transfected DP16-1 cells stopped growing and eventually lost viability when grown in medium containing 1.6% DMSO. Coincident expression of p53^pro193 with c-myc abolished the accelerated DMSO-induced differentiation seen in cells which expressed c-myc alone."}, "[2]": {"system": "p53^tsneo/pMbm1-dhfr co-transfectants (DP16-1 MEL cells)", "assay": "Viability of amplified p53^tsneo/pMbm1-dhfr co-transfectants in 1.6% DMSO", "assay_type": "cell-based, mouse", "details": "amplified c-myb cultures", "description": "To determine how c-myb and p53 interact during MEL cell growth and differentiation, DP16-1 cells were co-transfected with p53^tsneo and pMbm1-dhfr, which encodes a full-length c-myb cDNA under the control of an SV40 promoter (Clarke, et al., supra). […] (FIG. 9A; panel c, C5a p53^tsneo/c-myb transfected DP16-1 cells; panel d, C5a cells). Instead, these cells proliferated for 2-3 days, and then arrested coincident with an increase in benzidine-positive cells (FIG. 11). Viability decreased only after the majority of cells had differentiated. Increased expression of c-myb was selected for by growing transfected cells in higher concentrations of methotrexate (Clarke et al., supra)."}, "[3]": {"system": "c-myc transfected DP16-1 cells", "assay": "DMSO-induced differentiation of c-myc transfected DP16-1 cells, benzidine staining", "assay_type": "cell-based, mouse", "details": "two days of exposure to medium containing DMSO", "description": "as §1"}, "[4]": {"assay": "Viability of G1-arrested p53tsneo clones (mimosine growth arrest)", "assay_type": "cell-based", "details": "mouse, clones C9, C2 and C1 (p53tsneo transfected DP16-1 MEL cells); mimosine 300 μM, late G1 arrest at 37.5° C., after 3-4 days of arrest", "experimental": "(§2) The relationship of p53 induced cell death to the cell cycle was studied in transfected clone C9. Clone C9 cells were synchronized in G0/G1 by density arrest (typically at a concentration of 1-2×10^6 cells/ml) for 48-72 hours at 37.5° C. Cells were stimulated to begin cycling by replating into fresh media at a 1:10 split ratio. Growth arrest with mimosine (Sigma) was accomplished by the addition of 300 μM mimosine to logarithmically growing cells for a period of 24 hours.\n(§3) To rule out that G1 arrest alone induces cell death, clones C9, C2 and C1 were growth arrested with either mimosine (300 μM) (Watson et al., Cytometry 12:242 (1991)) or isoleucine deprivation (Heintz et al., Proc. Natl. Acad. Sci. USA 79:4083 (1982)) at 37.5° C., both of which result in late Gi arrest."}, "[5]": {"system": "clones C9, C2 and C1 (p53^tsneo transfected DP16-1 MEL cells)", "assay": "Viability of G1-arrested p53tsneo clones (mimosine growth arrest)", "assay_type": "cell-based", "details": "mouse, 36 h, 300 μM", "experimental": "as §2, §3"}, "[6]": {"system": "CML cells in bone marrow cell culture", "assay": "Purging CML cells from low density mononuclear bone marrow cells with antisense myb", "assay_type": "cell-based", "details": "40 μg/ml, culture changed two times a day for 1-to-three days, after MIP-1α 300 μg/ml for 24 hours", "description": "The most successful purging of bone marrow cells includes from one-to-three non-overlapping techniques. CML cells display antigens which are not present on the hematopoietic stem cells. A large majority of the CML cells that contaminant Marrow samples can initially be removed using antibodies that recognize these CML-specific antigens. Antibodies that can be used include specificities directed to one or more of the following antigens: CD15, CD33, Glycophorin A, CD10, CD2, CD4 and CD8. Antibody-cell conjugates can be removed by either flow cytometry, immuno-magnetic beads or compliment, for example. The remaining CML cells can be killed by incubating the enriched culture in the presence of c-myb antisense oligonucleotides.\nBriefly, mononuclear cells will be isolated from a 5 ml bone marrow aspirate by centrifuging through a ficol-hypaque density gradient. The isolated bone marrow cells (1×10^5 CD34+ progenitor cells) are then cultured in Dexter medium with IL3, SGF and EPO and macrophage inflammatory factor (MIP-1α; 300 μg/ml) for 24 hours and then are cultured in medium containing c-myb antisense oligonucleotides. MIP-1α arrests normal hematopoietic cells in G0 and these cells will therefore be resistant to c-myb antisense. The CML cells, however, are unresponsive to MIP-1α and will continue to cycle. […]"}}, "data": [{"compound": "C[S+](C)[O-]", "note": "[DMSO, dimethyl sulfoxide]", "values": [{"measurement": "Benzidine positivity", "setting": "p53^tsneo clones", "value": "70-80%"}, {"measurement": "Period over which cells died after growth arrest", "setting": "[1]", "value": "48 to 96", "unit": "h"}, {"measurement": "Differentiation", "setting": "parental DP16-1 cells", "value": "remained largely undifferentiated"}, {"measurement": "Time to loss of viability", "setting": "[2]", "value": "10 to 14", "unit": "days"}, {"measurement": "Cells differentiated", "setting": "[3]", "value": "70-80%"}]}, {"compound": "NC(Cn1ccc(=O)c(O)c1)C(=O)O", "note": "(centres unmarked) [mimosine]", "values": [{"measurement": "viability at 300 μM", "setting": "[4]", "value": "~70", "unit": "%"}, {"measurement": "Viability", "setting": "[5]", "value": "less than 5%"}]}, {"compound": "c-myb antisense: c-myb antisense oligonucleotide 5′-GTGCCGGGGTCTTCGGGC-3′ (chemistry not given here)", "values": [{"measurement": "Cells remaining viable in culture", "setting": "[6]", "value": "only the normal hematopoietic cells"}]}]}
